# Experimental data published in patent publication US10874743B2, “IRAK degraders and uses thereof” (Kymera Therapeutics, Inc., priority 2017, dated 2020).
# Target: T1, IRAK4 (Homo sapiens, UniProt Q9NWZ3)
# T1 sequence (Q9NWZ3 1-460): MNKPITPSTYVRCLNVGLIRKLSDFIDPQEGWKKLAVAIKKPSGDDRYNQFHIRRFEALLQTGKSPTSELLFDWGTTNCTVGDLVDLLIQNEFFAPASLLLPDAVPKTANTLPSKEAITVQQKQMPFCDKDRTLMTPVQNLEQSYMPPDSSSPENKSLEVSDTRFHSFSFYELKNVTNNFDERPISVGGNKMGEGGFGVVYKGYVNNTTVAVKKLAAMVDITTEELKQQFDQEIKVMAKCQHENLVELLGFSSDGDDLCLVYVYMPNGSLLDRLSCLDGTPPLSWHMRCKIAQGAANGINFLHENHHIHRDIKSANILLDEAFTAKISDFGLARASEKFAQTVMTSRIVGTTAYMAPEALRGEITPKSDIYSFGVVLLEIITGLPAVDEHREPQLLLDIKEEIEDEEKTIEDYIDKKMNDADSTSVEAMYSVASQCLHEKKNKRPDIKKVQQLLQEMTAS
# Assay: OCI-LY-10 degradation assay (western blot, % IRAK4 degraded after 4 hours)
# Format: cell-based
# Design: endogenous in cells; host or cells: OCI-LY10
# Details: OCI-LY10 cells
# In short: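 IRAK4 loss after 4 h at 37° C was scored A (>50%), B (>20-50%) or C (<20%) from infrared western blots of RIPA lysates, 20-25 μg protein per lane. Compound was applied at 0.003-10 μM final to OCI-LY10 cells cultured in RPMI-1640 with 20% FBS and 55 μM 2-ME.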
compound,measurement,setting,value
"O=C1CCC(N2C(=O)c3cccc(NCCOCCOCCNCc4ccc(-n5cc(NC(=O)c6coc(-c7ccnc(NCC8CC8)c7)n6)c(C(F)F)n5)cc4)c3C2=O)C(=O)N1 (stereo not shown) [I-210, 2-[2-(Cyclopropylmethylamino)-4-pyridyl]-N-[3-(difluoromethyl)-1-[4-[[2-[2-[2-[[2-(2,6-dioxo-3-piperidyl)-1,3-dioxoisoindolin-4-yl]amino]ethoxy]ethoxy]ethylamino]methyl]phenyl]pyrazol-4-yl]oxazole-4-carboxamide]",OCI-LY10 % IRAK4 Degradation (0.01 uM),"4 hours, 0.01 uM compound",C (<20% degradation)
same,OCI-LY10 % IRAK4 Degradation (0.1 uM),"4 hours, 0.1 uM compound",B (>20-50% degradation)
same,OCI-LY10 % IRAK4 Degradation (1 uM),"4 hours, 1 uM compound",A (>50% degradation)
same,OCI-LY10 % IRAK4 Degradation,"IRAK4 degraded after 4 hours, western blot",A (>50% degradation)
